Data reported in patent US20250213558A1, “T-TYPE CALCIUM CHANNEL MODULATORS COMPRISING A PIPERAZINE OR 1,4-DIAZEPANE CORE AND METHODS OF USE THEREOF” (Praxis Precision Medicines, Inc., priority 2022, published 2025).
Where two headings read alike, the source gives them in different places.

Target: T1, Human Cav3.1 calcium channel (Homo sapiens, UniProt O43497)
T1 construct: expressed in transfected cells; host or cells: HEK-293 natClytin/TASK1+Cav3.1 cell line
Assay: Human Cav3.1 calcium channel patch clamp assay (SyncroPatch 384PE; single point and IC50, voltage dependent block)
Assay type: cell-based
Conditions: for % Inhibition (Single Point Data): patch clamp
Procedure, shortened: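 Automated whole-cell patch clamp at room temperature, cells held at −120 mV; 100 ms step to −20 mV (resting block), then 1600 ms at −65 mV and a second −20 mV step (voltage-dependent block), every 15 s. Peak currents averaged over last 3 sweeps; % inhibition relative to nickel-sensitive current.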

[1] = Testing Conc 1.25, HEK-293 natClytin/TASK1+Cav3.1 cell line
[2] = voltage dependent block (VDB), HEK-293 natClytin/TASK1+Cav3.1 cell line, read-out: Cav3.1 IC50
[3] = Testing Conc 1, HEK-293 natClytin/TASK1+Cav3.1 cell line

T1 sequence (O43497 whole entry): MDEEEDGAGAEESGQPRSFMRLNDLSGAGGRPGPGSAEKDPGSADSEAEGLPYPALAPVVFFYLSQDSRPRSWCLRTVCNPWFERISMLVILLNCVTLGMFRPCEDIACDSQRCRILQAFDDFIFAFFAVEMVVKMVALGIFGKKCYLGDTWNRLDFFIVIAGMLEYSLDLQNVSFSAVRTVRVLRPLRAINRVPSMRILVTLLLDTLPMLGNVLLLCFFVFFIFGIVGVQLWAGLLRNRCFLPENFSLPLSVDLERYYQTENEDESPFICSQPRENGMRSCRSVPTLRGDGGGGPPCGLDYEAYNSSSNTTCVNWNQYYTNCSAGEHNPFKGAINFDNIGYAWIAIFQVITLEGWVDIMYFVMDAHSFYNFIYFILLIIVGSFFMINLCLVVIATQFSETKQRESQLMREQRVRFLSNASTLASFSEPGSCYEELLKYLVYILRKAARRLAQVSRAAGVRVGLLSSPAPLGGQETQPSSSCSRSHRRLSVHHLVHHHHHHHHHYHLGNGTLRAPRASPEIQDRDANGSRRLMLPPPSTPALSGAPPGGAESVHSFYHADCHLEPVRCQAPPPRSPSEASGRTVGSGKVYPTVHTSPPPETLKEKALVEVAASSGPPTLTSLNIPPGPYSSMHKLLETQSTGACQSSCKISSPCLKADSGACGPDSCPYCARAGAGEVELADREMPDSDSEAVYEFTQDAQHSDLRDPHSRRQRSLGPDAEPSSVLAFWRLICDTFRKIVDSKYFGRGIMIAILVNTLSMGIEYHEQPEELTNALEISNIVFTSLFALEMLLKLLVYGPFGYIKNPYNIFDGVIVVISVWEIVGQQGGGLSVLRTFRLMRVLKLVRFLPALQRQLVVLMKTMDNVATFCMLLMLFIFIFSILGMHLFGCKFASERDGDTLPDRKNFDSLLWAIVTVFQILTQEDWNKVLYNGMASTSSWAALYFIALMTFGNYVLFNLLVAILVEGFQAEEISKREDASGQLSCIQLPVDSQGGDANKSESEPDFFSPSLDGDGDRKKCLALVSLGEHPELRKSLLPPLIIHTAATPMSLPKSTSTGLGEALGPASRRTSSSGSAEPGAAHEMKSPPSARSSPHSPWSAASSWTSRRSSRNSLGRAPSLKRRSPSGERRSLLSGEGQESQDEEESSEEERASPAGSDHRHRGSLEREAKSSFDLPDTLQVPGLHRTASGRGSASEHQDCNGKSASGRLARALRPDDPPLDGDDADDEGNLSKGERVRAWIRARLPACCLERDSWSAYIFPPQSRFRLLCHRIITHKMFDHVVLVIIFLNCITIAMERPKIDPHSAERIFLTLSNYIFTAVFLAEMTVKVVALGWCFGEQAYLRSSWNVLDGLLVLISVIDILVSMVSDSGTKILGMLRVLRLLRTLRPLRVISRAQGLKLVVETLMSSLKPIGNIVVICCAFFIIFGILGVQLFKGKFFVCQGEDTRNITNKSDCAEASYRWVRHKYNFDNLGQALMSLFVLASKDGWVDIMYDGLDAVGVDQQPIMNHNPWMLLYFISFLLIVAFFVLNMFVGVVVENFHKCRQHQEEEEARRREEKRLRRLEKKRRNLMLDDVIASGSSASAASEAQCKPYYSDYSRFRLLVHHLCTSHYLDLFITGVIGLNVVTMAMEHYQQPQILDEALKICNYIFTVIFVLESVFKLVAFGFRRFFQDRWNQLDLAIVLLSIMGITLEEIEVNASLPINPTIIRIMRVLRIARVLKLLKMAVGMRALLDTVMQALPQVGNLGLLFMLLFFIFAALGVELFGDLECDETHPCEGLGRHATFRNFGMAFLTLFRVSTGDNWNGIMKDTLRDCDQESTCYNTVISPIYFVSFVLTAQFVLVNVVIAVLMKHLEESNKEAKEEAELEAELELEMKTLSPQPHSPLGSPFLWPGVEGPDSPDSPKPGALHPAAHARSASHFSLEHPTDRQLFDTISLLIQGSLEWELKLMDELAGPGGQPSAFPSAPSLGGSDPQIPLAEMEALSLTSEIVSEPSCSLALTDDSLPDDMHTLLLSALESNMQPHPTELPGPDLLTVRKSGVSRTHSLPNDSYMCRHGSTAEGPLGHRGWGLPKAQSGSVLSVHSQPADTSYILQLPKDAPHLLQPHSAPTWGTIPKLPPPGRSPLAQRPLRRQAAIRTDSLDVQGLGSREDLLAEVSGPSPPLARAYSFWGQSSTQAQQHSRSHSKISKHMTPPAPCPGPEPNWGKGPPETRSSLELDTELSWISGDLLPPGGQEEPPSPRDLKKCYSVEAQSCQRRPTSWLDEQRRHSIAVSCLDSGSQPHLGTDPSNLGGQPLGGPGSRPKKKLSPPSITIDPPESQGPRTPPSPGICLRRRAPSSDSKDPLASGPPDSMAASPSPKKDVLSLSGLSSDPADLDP

Row | IC50 [2] [nM] | % Inhibition (Single Point Data) [3] [%] | Structure (SMILES) | % Inhibition (Single Point Data) [1] [%] | IC50 [nM]
1 |  |  | CCC(C)(C)NC(=O)CN1C2CCC1CN(Cc1nc3c(Cl)cc(F)cc3[nH]1)C2 [Compound 75] | 99.169 | 
2 |  |  | Cn1nc(C(C)(C)C)cc1NC(=O)CN1CC2CCC(C1)N2CC(=O)NC(C)(C)C [Compound 6] | 10.343 | 
3 | 1210 |  | CC(C)(C)NC(=O)CN1CCN(CC(=O)Nc2cc(F)cc(Cl)c2)C2(COC2)C1 [Compound 44] | 50 | 
4 | 226 |  | CC(C)(NC(=O)CN1CC2CC1CN2CC(=O)Nc1ccc(F)c(Cl)c1)C(F)(F)F (stereo not drawn) [Compound 235] | 92.093 | 
5 | 1270 |  | CC(C)(C)NC(=O)CN1C[C@@H]2C[C@H]1CN2CC(=O)NCC12CC3CC(CC(C3)C1)C2 [Compound 285] | 45.897 | 
6 |  |  | CC(C(=O)Nc1cc(F)cc(OC(F)F)c1)N1C[C@@H]2C[C@H]1CN2CC(=O)NC(C)(C)C (stereo partly drawn) [Compound 265] | 88.764 | 
7 | 5820 |  | CC(C)(C)NC(=O)CN1C2CC(CC(=O)Nc3cc(F)cc(Cl)c3)CC1C2 (stereo not drawn) [Compound 373] |  | 
8 | 407 |  | CC(C)(NC(=O)CN1CC2CC1CN2Cc1nc2c(Cl)ccc(F)c2[nH]1)C(F)(F)F (stereo not drawn) [Compound 149] | 99.801 | 
9 |  |  | CC(c1nc2c(Cl)cc(F)cc2[nH]1)N1CC2CC(C1)N2CC(=O)NC(C)(C)C (stereo not drawn) [Compound 200] | 93.175 | 
10 | 94 |  | COc1cc(NC(=O)CN2C[C@@H]3C[C@H]2CN3CC(=O)NC(C)(C)C)cc(F)c1F [Compound 354] |  | 
11 |  |  | CC1(C)CN(C(=O)CN2C3CCC2CN(Cc2nc4c(Cl)cc(F)cc4[nH]2)C3)C1 [Compound 91] | 97.882 | 
12 | 581 |  | CC(C)(C)NC(=O)CN1C[C@@H]2CC[C@H]1CN2CC(=O)Nc1ccc(F)c(Cl)c1 [Compound 271] | 70.509 | 
13 | 1080 |  | CC1(C)CN(C(=O)CN2C[C@@H]3C[C@H]2CN3CC(=O)NC23CC4CC(CC(C4)C2)C3)C1 [Compound 317] | 48.399 | 
14 | 627 | 62.5 | COCC1CN(CC(=O)NC(C)(C)C)CCN1CC(=O)Nc1cc(F)cc(Cl)c1 (stereo not drawn) [Compound 42] |  | 
15 |  |  | CC(C)(C)CCCN1C2CC1CN(Cc1nc3c(Cl)cc(F)cc3[nH]1)C2 [Compound 107] | 101.43 | < 78.2
16 |  |  | O=C(CN1CC2CC1CN2CC(=O)NC1(C(F)(F)F)CC1)Nc1ccc(F)c(Cl)c1 (stereo not drawn) [Compound 238] | 79.048 | 
17 |  |  | CC(C)(C)CCN1C2CCC1CN(Cc1nc3c(Cl)cc(F)cc3[nH]1)C2 [Compound 77] | 100.45 | 
18 | 4430 |  | Cc1ccc2ccnc(NCC3CCN(CC(=O)NC(C)(C)C)CC3)c2n1 [Compound 102] | 25.803 | 

Row | IC50 [2] [nM] | % Inhibition (Single Point Data) [3] [%] | Structure (SMILES) | % Inhibition (Single Point Data) [1] [%] | IC50 [nM]
19 |  |  | COc1ccc(F)c2[nH]c(CN3CC4CC(C3)N4CC(=O)NC(C)(C)C(F)(F)F)nc12 [Compound 183] | 95.323 | 87.4
20 |  |  | O=C(CN1CC2CC(C1)N2CCNC(=O)C1(C(F)(F)F)CC1)Nc1ccc(F)c(Cl)c1 [Compound 16] | 94.311 | 
21 |  |  | Fc1cc(Cl)c2nc(CN3CC4CCC(C3)N4CCN3CCC(F)(F)CC3)[nH]c2c1 [Compound 90] | 99.043 | 
22 |  |  | COc1cc(F)cc(NC(=O)CN2C[C@@H]3C[C@H]2CN3CC(=O)NC(C)(C)C)c1 [Compound 275] | 93.716 | 
23 |  | 30.86 | O=C(CN1CCN(CCC2CCOCC2)CC1=O)Nc1cc(F)cc(Cl)c1 [Compound 38] |  | 
24 | 242 |  | CC(C(=O)Nc1ccc(F)c(Cl)c1)N1C[C@@H]2C[C@H]1CN2CC(=O)NC(C)(C)C (stereo partly drawn) [Compound 264] | 85.955 | 
25 |  |  | CC1(CCN2C3CC2CN(Cc2nc4c(Cl)cc(F)cc4[nH]2)C3)CCC1 [Compound 109] | 98.531 | 
26 |  |  | CC(C)(NC(=O)CN1C2CC1CN(Cc1nc3c(Cl)ccc(F)c3[nH]1)C2)C(F)(F)F [Compound 181] | 102.49 | 42.3
27 |  |  | CC(C)(C)NC(=O)CN1C[C@H]2C[C@@H]1CN2CC(=O)Nc1cc(F)cc(OC(F)F)c1 [Compound 21] | 73.828 | 
28 | 250 |  | OC1(CN2CCN(Cc3nc4c(Cl)ccc(F)c4[nH]3)CC2)CCC(F)(F)CC1 [Compound 159] | 76.669 | 
29 |  |  | Cc1ccc(F)c2[nH]c(CN3CC4CC(C3)N4CC(=O)NC(C)(C)C(F)(F)F)nc12 [Compound 144] | 98.286 | 74.5
30 |  |  | Cc1ccc(C#N)c2nc(CN3CC4CC(C3)N4CC(=O)NC(C)(C)C)[nH]c12 [Compound 177] | 87.595 | 
31 |  |  | CC(C)(C)NC(=O)CN1C[C@@H]2C[C@H]1CN2CC(=O)Nc1cc(F)cc(Cl)c1 [Compound 58] | 91.889 | 
32 |  |  | Fc1cc(Cl)c2nc(CN3CC4CC(C3)N4CC3(F)CCC(F)(F)CC3)[nH]c2c1 [Compound 152] | 70.533 | < 78.2
33 | 886 |  | O=C(CN1C[C@@H]2C[C@H]1CN2CC1(O)CCC(F)(F)CC1)NC12CC3CC(CC(C3)C1)C2 [Compound 277] | 56.486 | 
34 |  |  | Cc1cccc2[nH]c(CN3CC4CC(C3)N4CCC3CCOCC3)nc12 [Compound 204] | 3.6634 | 
35 |  |  | CC(C)(NC(=O)CN1CC2CC1CN2CC(=O)Nc1cc(F)cc(OC(F)F)c1)C(F)(F)F (stereo not drawn) [Compound 55] | 76.829 | 

Row | Structure (SMILES) | IC50 [2] [nM] | % Inhibition (Single Point Data) [3] [%] | % Inhibition (Single Point Data) [1] [%] | IC50 [nM]
36 | COc1cccc(NC(=O)CN2CC3CC(C2)N3CC(=O)NC(C)(C)C)c1 [Compound 208] | 1010 |  | 51.139 | 
37 | O=C(CN1CC2CC(C1)N2CC(=O)NC1(C(F)(F)F)CC1)NC12CC3CC(CC(C3)C1)C2 [Compound 281] | 900 |  | 54.316 | 
38 | CC(C)(C)NC(=O)CN1C2CC1CN(Cc1nc3c(Cl)cc(F)cc3o1)C2 [Compound 115] | 4360 |  |  | 
39 | O[C@H]1CC[C@H](OCCN2C3CC2CN(Cc2nc4c(Cl)cc(F)cc4[nH]2)C3)CC1 [Compound 133] | 553 |  | 72.888 | 
40 | COC(=O)C(C)(C)N(C)C(=O)CN1C2CCC1CN(Cc1nc3c(Cl)cc(F)cc3[nH]1)C2 [Compound 85] | 375 |  | 66.404 | 
41 | Fc1cc(Cl)c2nc(CN3CC4CC(C3)N4CC(F)C3CCCCC3)[nH]c2c1 (stereo not drawn) [Compound 169] | 297 |  | 84.629 | 
42 | CC1(NC(=O)CN2C3CC2CN(CC(=O)Nc2ccc(F)c(Cl)c2)C3)CC1 [Compound 239] | 587 |  | 58.273 | 
43 | CC(C)(C)NC(=O)CN1C2CCC1CN(Cc1nc3cc(F)cc(Cl)c3o1)C2 [Compound 193] | 2200 |  | 23.525 | 
44 | CC(C)(C)NC(=O)CN1C2CC1CN(CC(=O)NC13CCC(CC1)CC3)C2 [Compound 307] | 1010 |  | 41.625 | 
45 | CC1(C)CCCC(=O)N1CCN1C2CC1CN(Cc1nc3c(Cl)cc(F)cc3[nH]1)C2 [Compound 103] | 109 |  | 96.655 | 
46 | Cc1cc(F)cc2[nH]c(CN3CC4CCC(C3)N4CC(=O)NC(C)(C)C)nc12 [Compound 190] | 210 |  | 94.944 | 
